From the NIST ThermoML archive (doi:10.1016/j.jct.2019.04.017)
“And” between values parts separate entries of the source, which are not always exact repeats. Equal entries are not always repeated.

Assay: xn = mol fraction of the nth substance listed
Details: 96 kPa, Liquid; for viscosity: Cone and plate viscometry; for electrical conductivity: Frequency=0.001 MHz, Alternating current cell with electrodes

C1CCC2=NCCCN2CC1 [1,8-diaza-7-bicyclo[5.4.0]undecene] + OCC(O)CO
Details | electrical conductivity, 288.1 K [S/m] | electrical conductivity, 293.1 K [S/m] | electrical conductivity, 298.1 K [S/m] | electrical conductivity, 303.1 K [S/m] | electrical conductivity, 308.1 K [S/m] | viscosity, 288.1 K | viscosity, 298.1 K [mPa·s] | viscosity, 308.1 K
x1 = 0.0501 | – | – | – | – | – | 3852 mPa·s | 1458 | 626.5 mPa·s
x1 = 0.0502 | 0.0181 | 0.0243 | 0.0327 | 0.0423 | 0.0534 | – | – | –
x1 = 0.0909 | – | – | – | – | – | 5116 mPa·s | 1802 | 759.4 mPa·s
x1 = 0.0914 | 0.0194 | 0.0272 | 0.0371 | 0.0478 | 0.062 | – | – | –
x1 = 0.1 | 0.0187 | – | 0.0352 | – | 0.0592 | 5432 mPa·s | 1876 | 784.2 mPa·s
x1 = 0.1115 | 0.0182 | 0.0249 | 0.0339 | 0.044 | – | – | – | –
x1 = 0.1266 | 0.0169 | 0.0238 | 0.0317 | 0.0433 | – | – | – | –
x1 = 0.1667 | – | – | – | – | – | 5975 mPa·s | 2092 | 818.8 mPa·s
x1 = 0.1672 | 0.0141 | 0.0208 | 0.0283 | 0.0374 | – | – | – | –
x1 = 0.2 | 0.0116 | 0.0167 | 0.023 | 0.031 | – | 6100 mPa·s and 6110 mPa·s | 2107 | 833.7 mPa·s and 835.4 mPa·s
x1 = 0.2153 | – | – | – | – | – | 6150 mPa·s | 2175 | 838.8 mPa·s
x1 = 0.2306 | – | – | – | – | – | 6006 mPa·s | 2087 | 828.5 mPa·s
x1 = 0.2504 | 0.00817 | 0.0117 | 0.0161 | 0.0204 | – | – | – | –
x1 = 0.287 | 0.00592 | 0.00833 | 0.0112 | 0.015 | – | – | – | –
x1 = 0.3059 | – | – | – | – | – | 5665 mPa·s | 1988 | 771.5 mPa·s
x1 = 0.3333 | – | – | – | – | – | 5582 mPa·s | 1968 | 742.2 mPa·s
x1 = 0.3338 | 0.00385 | 0.00534 | 0.00723 | 0.0103 | – | – | – | –
x1 = 0.4003 | 0.00156 | 0.00223 | 0.00307 | 0.00416 | – | – | – | –
x1 = 0.4011 | – | – | – | – | – | 5043 mPa·s | 1705 | 664.5 mPa·s
x1 = 0.5 | 0.000299 | 0.000456 | 0.000675 | 0.000965 | – | 4049 mPa·s | 1315 | 503 mPa·s
x1 = 0.5632 | – | – | – | – | – | 3138 mPa·s | 1017 | 393.5 mPa·s
x1 = 0.5656 | 0.000105 | 0.00016 | 0.000249 | 0.000356 | – | – | – | –
x1 = 0.625 | – | – | – | – | – | 1906 mPa·s | 616.2 | 224.2 mPa·s
x1 = 0.6255 | 4.63e-05 | 7.22e-05 | 0.000122 | 0.000176 | – | – | – | –
x1 = 0.75 | 8.75e-05 | – | 0.000189 | – | – | 468.1 mPa·s | 186.1 | 84.66 mPa·s
x1 = 0.753 | 8.75e-05 | 0.000125 | 0.000189 | 0.000254 | – | – | – | –
x1 = 0.8333 | 0.000221 | – | 0.000405 | – | – | 119.1 mPa·s | 51 | 33.4 mPa·s
x1 = 0.8334 | 0.000221 | 0.000314 | 0.000405 | 0.000526 | – | – | – | –
x1 = 0.9094 | 0.000432 | 0.000514 | 0.000603 | 0.000695 | – | – | – | –
x1 = 0.95 | 0.000486 | 0.000561 | 0.000638 | 0.000702 | – | – | – | –
x1 = 0.975 | 0.000452 | 0.000511 | 0.000561 | 0.000615 | – | – | – | –
x1 = 1 | 0.000222 | 0.000241 | 0.000267 | 0.000297 | – | 15.35 mPa·s | 10.32 | 8.17 mPa·s
